Results published in US20230348978A1, “TREATMENT OF ALZHEIMER'S DISEASE” (SELONTERRA, INC., priority 2020, published 2023).

System: E4E4 neurons
Experiment: qPCR gene expression in E4E4 neurons treated with GPR4 agonist
Format: cell-based, human
Conditions: six hours, vs E4E4 vehicle-treated neurons
Excerpt: Example 1: Cultivation of human isogenic neurons carrying either the homozygous APOE4 genotype (E4E4) or the homozygous APOE3 genotype (E3E3). Commercially available human isogenic neurons were acquired from Fujifilm Cellular Dynamics Inc. The homozygous APOE4 genotype (E4E4) neurons were designated DDP-NRC-1× 01434.779 and herein they are referred to as E4E4 neurons. The homozygous APOE3 genotype (E3E3) neurons were designated R1013 and herein they are referred to as E3E3 neurons. The neurons were plated and cultivated in 96-well plates. Prior to plating of neurons, the manufacturer supplied complete maintenance medium was prepared and stored at 4 degrees Celsius. The 96-well plates were double coated with poly-L-ornithin (PLO Sigma; P4957) and laminin (Sigma; L2020) by first coating the wells with poly-L-ornithin overnight at 4 degrees Celsius. Wells were rinsed with phosphate-buffered saline and then laminin diluted in phosphate-buffered saline at a concentration of 10 micrograms/milliliter was added for three hours. Complete maintenance medium was equilibrated to room temperature. Neurons were thawed for three minutes in a 37 degrees Celsius water bath. The content of the vial was transferred to a 50 ml conical tube by adding one milliliter of room-temperature equilibrated complete maintenance medium and suspending the neurons. The neuron suspension was transferred to the 50 ml conical tube. This neuron suspension was further diluted by addition of eight milliliter of complete maintenance medium. A viable neuron count was performed and the neurons were plated into individual wells of a 96-well plate at a neuronal seed density of 125,000 neurons per cm^2. The E3E3 and the E4E4 containing 96-well plates were transferred into a cell incubator and incubated at 37 degrees Celsius and 5% CO2. E3E3 and E4E4 neurons plated in this way were allowed to attach to the wells of the 96-well plate for 24 hours at which time a 100% medium change to fresh complete maintenance medium was performed. The E3E3 and E4E4 neurons were then continued to be cultivated at 37 degrees Celsius and 5% CO2. On Day 5 after plating a 50% medium change was performed by removal of 50% of the cell supernatant and addition of the same volume of fresh complete maintenance medium and then the 96-well plates were continued to be cultivated at 37 degrees Celsius and 5% CO2. On Day 9 after plating, a 50% medium change was performed by removal of 50% of the cell supernatant and addition of the same volume of fresh complete maintenance medium. This medium change was performed before neurons were treated with compounds on Day 9 after plating.
Example 2: Treatment of E4E4 neurons with the exemplary GPR4 agonist SLC2004 and vehicle and E3E3 neurons with vehicle. E4E4 and E3E3 neurons were plated and cultivated in individual wells of a 96-well plate as described in Example 1. The compound spingosylphosphorylcholine (SLC2004) (Sigma; S4257) is a lyophilized powder with a white to yellow appearance and a molecular weight of 464.62 Dalton. A fresh stock solution of SLC2004 was prepared in methanol as vehicle at a stock concentration of 300 millimolar. This stock solution was further diluted to yield two 21-fold concentrated solutions of the intended in-well concentrations. For one of the 21-fold concentrated SLC2004 solution, a final SLC2004 in-well concentration of 3 micromolar was achieved by adding 10 microliters of this 21-fold concentrated SLC2004 solution to 200 microliters of complete maintenance medium in each well of the 96-well plate. For the second 21-fold concentrated SLC2004 solution, a final SLC2004 in-well concentration of 10 micromolar was achieved by adding 10 microliters of this 21-fold concentrated SLC2004 solution to 200 microliters of complete maintenance medium in each well of the 96-well plate. All wells with SLC2004-treated neurons contained the same amount of 0.01% methanol in complete maintenance medium. […]

CCCCCCCCCCCCC/C=C/[C@@H](O)[C@@H](N)COP(=O)([O-])OCC[N+](C)(C)C [SLC2004, sphingosylphosphorylcholine]
downregulated: expression of ITGB3 (3 micromolar)
upregulated: expression of CCND3 (3 micromolar) | expression of VCL (3 micromolar) | expression of BDNF (10 micromolar) | expression of CTGF (10 micromolar) | expression of YAP1 (10 micromolar)
